For one assay, the target named is α1β2γ2 GABAA receptor (Homo sapiens (Human), UniProt P14867+P47870). Kind of assay: Patch clamp electrophysiology of recombinant α1β2γ2 GABAA receptors in LTK cells. The class given is cell-based. The settings on record: LTK, 10 μM compound, Qpatch, Ltk cells, GABA EC20 2 μM; read-out: α1β2γ2 GABA Qpatch in Ltk (Efficacy at 10 μm). Put shortly:
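Whole-cell voltage clamp at −80 mV, room temperature, in LTK cells stably expressing α1β2γ2 or CHO cells transiently expressing α4β3δ, manual or QPatch. Test article (0.01–10 μM, increasing, 30 s preincubation) then 2 μM GABA (EC20) for 2 s; potentiation = peak current with compound relative to GABA alone ×100.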

A further assay concerns the target α4β3δ GABAA receptor (Homo sapiens (Human), UniProt P28472+P48169). Kind of assay: Patch clamp electrophysiology of recombinant α4β3δ GABAA receptors in CHO cells. Format: cell-based. As to conditions: 10 μM compound, manual patch, GABA EC20 2 μM, read-out: α4β3δ GABA Manual Patch in CHO (Efficacy at 10 μM). On the procedure: Cellular electrophysiology is used to measure the pharmacological properties of our GABAA receptor modulators in heterologous cell systems. Each compound is tested for its ability to affect GABA mediated currents at a submaximal agonist dose (GABA EC20=2 μM). LTK cells are stably transfected with the α1β2γ2 subunits of the GABA receptor and CHO cells are transiently transfected with the α4β3δ subunits via the Lipofecatamine method. Cells were passaged at a confluence of about 50-80% and then seeded onto 35 mm sterile culture dishes containing 2 ml culture complete medium without antibiotics or antimycotics. Confluent clusters of cells are electrically coupled (Pritchett et al., 1988). Because responses in distant cells are not adequately voltage clamped and because of uncertainties about the extent of coupling (Verdoorn et al., 1990), cells were cultivated at a density that enables the recording of single cells (without visible connections to other cells).
Whole cell currents were measured with HEKA EPC-10 amplifiers using PatchMaster software or by using the high throughput QPatch platform (Sophion). Bath solution for all experiments contained (in mM): NaCl 137 mM, KCl 4 mM, CaCl2 1.8 mM, MgCl2 1 mM, HEPES 10 mM, D-Glucose 10 mM, pH (NaOH) 7.4. In some cases 0.005% cremophor was also added. Intracellular (pipette) solution contained: KCl 130 mM, MgCl2 1 mM, Mg-ATP 5 mM, HEPES 10 mM, EGTA 5 mM, pH 7.2. During experiments, cells and solutions were maintained at room temperature (19° C.-30° C.). For manual patch clamp recordings, cell culture dishes were placed on the dish holder of the microscope and continuously perfused (1 ml/min) with bath solution. After formation of a Gigaohm seal between the patch electrodes and the cell (pipette resistance range: 2.5 MΩ-6.0 MΩ; seal resistance range: >1 GΩ) the cell membrane across the pipette tip was ruptured to assure electrical access to the cell interior (whole-cell patch-configuration). For experiments using the QPatch system, cells were transferred as suspension to the QPatch system in the bath solution and automated whole cell recordings were performed.
Cells were voltage clamped at a holding potential of −80 mV. For the analysis of test articles, GABA receptors were stimulated by 2 μM GABA after sequential pre-incubation of increasing concentrations of the test article. Pre-incubation duration was 30 s and the duration of the GABA stimulus was 2 s. Test articles were dissolved in DMSO to form stock solutions (10 mM). Test articles were diluted to 0.01, 0.1, 1, and 10 μM in bath solution. All concentrations of test articles were tested on each cell. The relative percentage potentiation was defined as the peak amplitude in response to GABA EC20 in the presence of the test article divided by the peak amplitude in response to GABA EC20 alone, multiplied by 100.
(In general: In patch-clamp work, channel activity is measured electrically.)

Results on 15 compounds are retold here after patent US11261211B2, “19-NOR neuroactive steroids and methods of use thereof” (Sage Therapeutics, Inc., priority 2013, dated 2022).

On to `C[C@@]1(O)CC[C@H]2[C@H](CC[C@@H]3[C@@H]2CC[C@]2(C)[C@@H](C(=O)Cn4cc5cncnc5n4)CC[C@@H]32)C1` [SA-35], for which the activity at 10 µM at α1β2γ2 GABAA receptor was 100 to 500%; at α4β3δ GABAA receptor it was above 500%.
Consider `C[C@@]1(O)CC[C@H]2[C@H](CC[C@@H]3[C@@H]2CC[C@]2(C)[C@@H](C(=O)Cn4nc5ccc(Cl)cc5n4)CC[C@@H]32)C1` [SA-41], for which the activity at 10 µM on α1β2γ2 GABAA receptor was above 500%; at α4β3δ GABAA receptor it was 100 to 500%.
For `Cc1ccc2nn(CC(=O)[C@H]3CC[C@H]4[C@@H]5CC[C@@H]6C[C@](C)(O)CC[C@@H]6[C@H]5CC[C@]34C)nc2c1` [SA-44] the same measures were 100 to 500% and 100 to 500%.
Regarding `COc1ccc2nn(CC(=O)[C@H]3CC[C@H]4[C@@H]5CC[C@@H]6C[C@](C)(O)CC[C@@H]6[C@H]5CC[C@]34C)nc2c1` [SA-49], on α4β3δ GABAA receptor, the activity at 10 µM is above 500%.
Consider `C[C@@]1(O)CC[C@H]2[C@H](CC[C@@H]3[C@@H]2CC[C@]2(C)[C@@H](C(=O)Cn4nc5ccc(F)cc5n4)CC[C@@H]32)C1` [SA-63], for which, on α4β3δ GABAA receptor, the activity at 10 µM lay within 100 to 500%.
On to `CCOC[C@@]1(O)CC[C@H]2[C@@H](CC[C@@H]3[C@@H]2CC[C@]2(C)[C@@H](C(=O)Cn4ncc5ncccc54)CC[C@@H]32)C1` [SB-54], for which the activity at 10 µM at α1β2γ2 GABAA receptor lay within 100 to 500%.
With `CCOC[C@@]1(O)CC[C@H]2[C@@H](CC[C@@H]3[C@@H]2CC[C@]2(C)[C@@H](C(=O)Cn4cc5ncccc5n4)CC[C@@H]32)C1` [SB-55], the activity at 10 µM at α1β2γ2 GABAA receptor was 10 to 100%.
Still for that read-out and setting: the same measure for `CCOC[C@@]1(O)CC[C@H]2[C@@H](CC[C@@H]3[C@@H]2CC[C@]2(C)[C@@H](C(=O)Cn4ncc5ccncc54)CC[C@@H]32)C1` [SB-56]: 10 to 100%; for `CCOC[C@@]1(O)CC[C@H]2[C@@H](CC[C@@H]3[C@@H]2CC[C@]2(C)[C@@H](C(=O)Cn4cc5ccncc5n4)CC[C@@H]32)C1` [SB-57]: 100 to 500%; for `CCOC[C@@]1(O)CC[C@H]2[C@@H](CC[C@@H]3[C@@H]2CC[C@]2(C)[C@@H](C(=O)Cn4nc5ccncc5n4)CC[C@@H]32)C1` [SB-59]: 100 to 500%.
For `CCOC[C@@]1(O)CC[C@H]2[C@@H](CC[C@@H]3[C@@H]2CC[C@]2(C)[C@@H](C(=O)Cn4nc5ccc(F)cc5n4)CC[C@@H]32)C1` [SB-60], the activity at 10 µM on α1β2γ2 GABAA receptor fell in the range of 10 to 100%.
The same measure, in the same setting: next, `COc1ccc2nn(CC(=O)[C@H]3CC[C@H]4[C@@H]5CC[C@H]6C[C@@](O)(CF)CC[C@@H]6[C@H]5CC[C@]34C)nc2c1` [SG-21]: 10 to 100%.
On to `COc1ccc2nnn(CC(=O)[C@H]3CC[C@H]4[C@@H]5CC[C@H]6C[C@@](O)(CF)CC[C@@H]6[C@H]5CC[C@]34C)c2c1` [SG-22], for which the activity at 10 µM at α1β2γ2 GABAA receptor lay in the range of 100 to 500%.
On the same count and under the same terms, next, `COc1ccc2c(c1)nnn2CC(=O)[C@H]1CC[C@H]2[C@@H]3CC[C@H]4C[C@@](O)(CF)CC[C@@H]4[C@H]3CC[C@]12C` [SG-23]: 10 to 100%; `C[C@]12CC[C@H]3[C@@H](CC[C@H]4C[C@@](O)(CF)CC[C@@H]43)[C@@H]1CC[C@@H]2C(=O)Cn1nc2ccc(F)cc2n1` [SG-24]: 100 to 500%.
